Numbers after ± are expanded uncertainties.
How the values were obtained:
[1] = molar heat capacity at constant pressure; conditions: 101 kPa, Liquid, Small sample (50 mg) DSC
[2] = 101 kPa, Liquid
[3] = xn = mol fraction of the nth substance listed; conditions: 101 kPa, Liquid, x2 = 0
[4] = molar heat capacity at constant pressure; xn = mol fraction of the nth substance listed; conditions: 101 kPa, Liquid, Small sample (50 mg) DSC, x2 = 0

OCCO [1,2-ethanediol]
Conditions | mass density, [2] [kg/m3] | molar heat capacity at constant pressure, [1] [J/K/mol] | viscosity, [2] [mPa·s]
293.15 K | 1113.7 ± 4.3 | 147.47 ± 3.6 | 20.83 ± 0.27
303.15 K | – | 149.71 ± 3.7 | 13.65 ± 0.18
313.15 K | 1093.6 ± 4.9 | 152 ± 3.7 | 9.443 ± 0.13
323.15 K | 1084.7 ± 5.3 | 153.8 ± 3.8 | 6.992 ± 0.11
333.15 K | 1076.4 ± 5.6 | 156.22 ± 3.8 | 5.06 ± 0.082
343.15 K | 1067.5 ± 5.9 | 159.7 ± 3.9 | 3.987 ± 0.066
353.15 K | 1060 ± 6.3 | 161 ± 4 | 3.021 ± 0.051
363.15 K | – | 164.98 ± 4 | –
373.15 K | – | 168.45 ± 4.1 | –

O [water] + OCCO
Conditions | mass density, [3] [kg/m3] | molar heat capacity at constant pressure, [4] [J/K/mol] | viscosity, [3] [mPa·s]
293.15 K | – | 75.29 ± 1.8 | 1.002 ± 0.019
303.15 K | – | 75.38 ± 1.8 | 0.797 ± 0.015
313.15 K | – | 75.21 ± 1.8 | 0.653 ± 0.013
323.15 K | – | 75.23 ± 1.8 | 0.547 ± 0.012
333.15 K | 983.2 ± 5.1 | 75.21 ± 1.8 | 0.467 ± 0.011
343.15 K | 977.8 ± 5.5 | 75.32 ± 1.8 | 0.405 ± 0.01
353.15 K | 971.8 ± 5.8 | 75.48 ± 1.9 | 0.356 ± 0.01
